Results reported in paper PMC12916490 (Molecular Psychiatry, 2025).

Columns and labels:
[1] = biological target: T1, hNET (Homo sapiens, UniProt P23975); assay: Radioligand binding, hNET (N-methyl-[3H]nisoxetine)
T1 construct: expressed in transfected cells; host or cells: HEK 293 cells (membrane preparation)
Method: Binding affinities at human monoamine receptors and transporters were assessed as previously reported. A detailed description of the methodology is provided in the Supplementary information.
(§1) The IC50 values from the radioligand binding assays were determined by nonlinear regression, using three independent concentration-response curves fitted to a one-site model. The Cheng-Prusoff equation was used to calculate Kᵢ values for the competing ligands. EC50 values were determined by applying nonlinear regression to concentration-response curves. Bias factors (β) were calculated based on the relative intrinsic activity approach. More detailed information can be found in the Supplementary information. Mean values for total number of HTR, change in body temperature from pre to post session (Δ°C), and total distance traveled (cm) for each drug dose were compared (p < 0.05) via Welch’s ANOVA with Dunnett’s T3 post test, comparing all doses to respective vehicle controls (0 mg/kg). Welch’s ANOVA with Dunnett’s T3 post test was also used to compare drug concentrations, but the data were compared to DOM in this case. Dose–response relationships for HTR and locomotor activities were plotted using bell-shaped curve fits, while temperature change data were plotted using four-parameter non-linear regression curve fits. The ascending phase of the HTR curve for each drug was used to determine ED50 potency values from four parameter non-linear regression fits. For combined DOM and DOAM administration, the plasma, brain tissue, and brain dialysate drug concentrations were compared using paired t-tests (p < 0.05).
3.1 Assessment of receptor and transporter binding affinities
Membrane preparations were prepared from cells transfected with the respective target. The membrane preparations were then incubated with selective radioligands at concentrations equal to the corresponding Kd and displacement of the ligand by the drugs was measured. The difference between total binding and nonspecific binding (determined in the presence of selective competitors) was defined as specific binding of the radioligand to the target receptor. The following transfected cell lines were used for the binding assays: HEK 293 cells (h5-HT1A, h5-HT2A, h5-HT2B, h5-HT2C, and hD2 receptors, hDAT, hNET, and hSERT), Chinese hamster ovary cells (hα 1A receptor), and Chinese hamster lung cells (hα 2A receptor).
3.1.1 Membrane preparations for receptor and transporter binding
For producing membrane preparations, transfected cells were harvested with trypsin/EDTA, washed with ice-cold phosphate buffered saline, and then pelleted by centrifugation (210 × g for 5 min at 4 °C). The pellets were frozen and stored at -80 °C until use. Frozen pellets were resuspended in 20 m L (receptor binding) or 400 m L (transporter binding) buffer (20 mM HEPES -NaOH, 10 mM EDTA, pH 7.4), and homogenized at 1,100 × g for 20 s (receptor binding) or 560 × g for 15 s (transporter binding); the homogenates were then centrifuged at 48,000 × g for 30 min at 4 °C. For receptor binding assays, the supernatants were discarded and the pellets were resuspended in 20 mL buffer (20 mM HEPES-NaOH, 0.1 mM EDTA, pH 7.4) and homogenized at 1 ,100 × g for 20 s. Centrifugation and discarding of the supernatant were repeated once, and the final pellet was then resuspended in buffer and homogenized.
3.1.2 Serotonin 5-HT1A and 5-HT2A receptor binding
Competitive binding at the h5-HT1A and h5-HT2A receptor was determined using 0.90 nM [ 3H]8-hydroxy-2-(di-n-propylamine)tetralin ([ 3H]8-OH-DPAT; h5-HT1A receptor agonist) and 0.40 nM [3H]ketanserin (h5-HT2 receptor antagonist) as radioligands. […]
binding of the radioligands was defined as difference between total binding (binding buffer alone) and nonspecific binding determined in the presence of 10 μM pindolol (h5-HT1A receptor antagonist) or 10 μM spiperone (h 5-HT2A receptor antagonist).

[2] = biological target: h5-HT2A (Homo sapiens, UniProt P28223); assay: β-arrestin 2 recruitment (NanoBiT), h5-HT2A; format: cell-based; set-up: expressed in transfected cells; conditions: for Emax: read-out: β-arrestin 2 recruitment Emax h5-HT2A (95% CI)
Sequence of h5-HT2A (P28223 whole entry, looked up): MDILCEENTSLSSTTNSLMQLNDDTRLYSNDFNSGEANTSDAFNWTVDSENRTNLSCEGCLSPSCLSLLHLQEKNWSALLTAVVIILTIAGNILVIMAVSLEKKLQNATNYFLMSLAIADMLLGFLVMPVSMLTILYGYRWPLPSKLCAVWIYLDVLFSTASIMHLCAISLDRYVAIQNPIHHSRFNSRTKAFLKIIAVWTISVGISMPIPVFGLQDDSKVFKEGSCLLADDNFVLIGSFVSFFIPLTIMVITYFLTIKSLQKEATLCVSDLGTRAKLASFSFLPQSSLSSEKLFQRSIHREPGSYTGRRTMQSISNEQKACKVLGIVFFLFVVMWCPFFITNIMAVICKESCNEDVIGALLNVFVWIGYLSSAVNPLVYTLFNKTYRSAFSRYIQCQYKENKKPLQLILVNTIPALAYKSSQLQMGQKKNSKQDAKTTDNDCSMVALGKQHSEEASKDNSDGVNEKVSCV
Method: Activation of h5-HT2A, h5-HT2B, and h5-HT2C receptors was examined by measuring the accumulation of inositol monophosphate (IP1) as a marker for Gαq-mediated signaling. For h5-HT2A, additional assays measured β-arrestin 2 recruitment and arachidonic acid release, the latter serving as a marker of Gαi/o,12/13 activation. The methodology is described in detail in the Supplementary information.
as §1, with “0.05). […]” for “0.05).”
the β-arrestin 2 molecule in the NanoBiT system) were seeded at a density of 50,000 cells per well in poly - D-lysine-coated 96-well plates in medium containing 10% dialyzed FBS. The plate was then incubated at […]
The following day, the cells were washed twice with 150 µL HBSS, and 100 µL HBSS was subsequently added to each well. Thereafter, 25 µL of substrate (1 :20 diluted in buffer) was added, and […]
agonist solutions was added, and the signal was monitored for 2 h. Drug dilutions in HBSS were made from 10 mM stock solutions in DMSO , yielding concentration ranges from 10 µM to 10 pM. All concentrations were run in duplicate and included the appropriate solvent controls. Efficacy was normalized to 5 -HT […]
3.2.3 Arachidonic acid release
Arachidonic acid release was assessed as a marker for Gαi/o,12/13 mediated signaling.
NIH/3T3 cells stably expressing the 5 -HT2A receptor were seeded at a density of 75,000 cells per well in a poly-D-lysine-coated 48-well plate. The following day, the cells were labeled with 300 μL [ 3H]arachidonic […]
Thereafter, the cells were washed 3 times for
(10 mM) of test substances were prepared in DMSO. The final dilution series of test substances dissolved […]
Thereafter, the plate was put on ice, and 400 μL incubation supernatant per well was transferred int o scintillation vials containing scintillation fluid (Ultimagold, Perkin Elmer, Schwerzenbach, Switzerland). The remaining supernatant was removed, and the cells were lysed with 1% sodium dodecyl sulfate lysis buffer. The obtained cell lysate was transferred into scintillation vials containing scintillation fluid. Radioactivity was measured on a liquid scintillation counter (Packard 1900 TR Tri-Carb Liquid Scintillation Counter; Packard Instrument Company). Efficacy was normalized to 5-HT activity.
3.2.4 Calculation of bias factors […]
using 5-HT as the reference agonist.
RApathway = EC50, i = EC50, ref×Emax,i […]

T1 sequence (P23975 whole entry): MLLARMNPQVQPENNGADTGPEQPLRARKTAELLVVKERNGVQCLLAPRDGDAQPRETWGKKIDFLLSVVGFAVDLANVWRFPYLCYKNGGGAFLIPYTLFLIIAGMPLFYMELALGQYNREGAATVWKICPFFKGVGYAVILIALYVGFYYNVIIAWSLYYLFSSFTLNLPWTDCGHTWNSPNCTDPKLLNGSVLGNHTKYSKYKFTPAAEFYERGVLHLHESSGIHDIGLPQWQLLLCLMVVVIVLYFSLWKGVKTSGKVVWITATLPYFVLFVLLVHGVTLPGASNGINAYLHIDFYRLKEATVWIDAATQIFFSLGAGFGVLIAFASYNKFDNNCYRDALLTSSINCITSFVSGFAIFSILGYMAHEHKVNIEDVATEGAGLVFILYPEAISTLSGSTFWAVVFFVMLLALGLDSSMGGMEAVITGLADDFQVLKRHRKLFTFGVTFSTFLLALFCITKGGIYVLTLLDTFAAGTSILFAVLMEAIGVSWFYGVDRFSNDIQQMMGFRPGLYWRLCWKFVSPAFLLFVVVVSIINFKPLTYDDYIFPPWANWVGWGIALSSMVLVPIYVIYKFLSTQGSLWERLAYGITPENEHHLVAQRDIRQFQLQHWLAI

Structure (SMILES)	Ki [1] [µM]	Agonist type in the β-arrestin 2 recruitment assay at the 5-HT2A receptor [2]	EC50 [2] [µM]	Emax [2] [%]
CCc1cc(OC)c(CC(C)N)cc1OC (stereo not drawn) [DOET, 4-ethyl-2,5-dimethoxyamphetamine]	> 8	full agonists	0.012	99
COc1cc(CC(C)N)c(OC)cc1C (stereo not drawn) [DOM, 4-methyl-2,5-dimethoxyamphetamine]	> 8	full agonists	0.055	97
CCCc1cc(OC)c(CC(C)N)cc1OC.Cl (stereo not drawn) [DOPR, 4-propyl-2,5-dimethoxyamphetamine hydrochloride]	> 8	full agonists	0.0093	105
CCCCc1cc(OC)c(CC(C)N)cc1OC (stereo not drawn) [DOBU, 4-butyl-2,5-dimethoxyamphetamine]	> 8	full agonists	0.024	96
CCCCCc1cc(OC)c(CC(C)N)cc1OC (stereo not drawn) [DOAM, 4-amyl-2,5-dimethoxyamphetamine]	> 8		0.056	85
COc1ccc(OC)c(CC(C)N)c1.Cl (stereo not drawn) [2,5-DMA, 2,5-Dimethoxyamphetamine hydrochloride]	> 8			83
